Data taken from US6992215B2, “Thiol-based NAALADase inhibitors” (Guildford Pharmaceuticals Inc., priority 2001, dated 2006).

How the values were obtained:
TGF-β2 = assay: Effect of NAALADase inhibition on TGF-β2 in in vitro ischemia model; type: cell-based; conditions: ischemic cell cultures, FIG. 2
Procedure: (§1) A NAALADase inhibitor, Compound C, was added to ischemia cell cultures to determine its effect on TGF-β levels during stroke.

TGF-β1 [1] = assay: Effect of NAALADase inhibition on TGF-β1 in in vitro ischemia model; type: cell-based; conditions: ischemic cell cultures, FIG. 1
Procedure: as §1

[2] = test system: chronic constrictive injury-induced rats; assay: Neuropathic pain in CCI model (sciatic nerve ligation, thermal hyperalgesia); type: in vivo; conditions: 50 mg/kg i.p. daily starting 10 days post surgery
Procedure: Sciatic nerve ligation, consisting of 4 ligatures tied loosely around the sciatic nerve at 1 mm intervals proximal to the nerve trifurcation, was performed on rats. […] The rats were habituated to a Hargreaves apparatus. An infrared heat source was directed onto the dorsal surface of each rat's hindpaws and the time taken for the rat to withdraw its paws was noted. The difference in scores between the latency of the response for the paw on the operated side versus the paw on the unoperated control side was determined.
The rats were treated with either Compound 49 (10, 1 or 0.1 mg/kg) or a vehicle for 15 days after sciatic nerve ligation. Thermal pain responses were measured at days 0, 1, 5, 8, 11 and 15. The differences in scores for the rats treated with a vehicle and the rats treated with Compound 49 are graphically presented in FIGS. 13-15.
The rats were treated with either Compound 5 (50, 30, 10, 3, 1 or 0.3 mg/kg) or a vehicle for 12 (or 15) days after sciatic nerve ligation. Thermal pain responses were measured at days 0, 1, 5, 8 and 12 (and 15). The differences in scores for the rats treated with a vehicle and the rats treated with Compound 5 are graphically presented in FIGS. 17-22.
The rats received either Compound C (50 mg/kg i.p. daily) or a vehicle starting 10 days post surgery. […] Normal (unoperated) rats had approximately equal latencies for both paws. This effect was significant starting at 11 days of drug treatment and persisted through to the end of the study (for 21 days of daily dosing).

TGF-β1 [3] = assay: TGF-β1 levels in MCAO rats assessed by microdialysis; type: in vivo; conditions: during both occlusion and reperfusion, FIG. 6
ischemic cell cultures = assay: Neuroprotective effect in in vitro ischemia model with growth factor neutralizing antibodies; type: cell-based
Procedure: TGF-β neutralizing antibodies were then added to the ischemic cell cultures.

[4] = test system: rats subjected to middle cerebral artery occlusion; assay: Neuroprotective effect in MCAO rats with TGF-β neutralizing antibodies; type: in vivo; conditions: FIG. 5
From the text: The effect of TGF-β neutralizing antibodies on the neuroprotective effect of Compound C was also studied in rats following MCAO.
One of ordinary skill in the art can appreciate that the regulation of TGF-β's by NAALADase inhibitors may have implications not only in stroke, but also in other diseases, disorders and conditions including, without limitation, neurological diseases, psychiatric diseases, demyelinating diseases, prostate cancer, inflammation, diabetes and angiogenesis.

Compound: O=C(O)CCC(CP(=O)(O)O)C(=O)O (centres unmarked) [Compound C, 2-(phosphonomethyl)pentanedioic acid]
- TGF-β2 concentrations (TGF-β2): increased concentrations
- TGF-β1 concentrations (TGF-β1 [1]): increased concentrations
- time of drug treatment from which the effect was significant [2]: 11 days
- difference scores between the two paws ([2]; FIG. 8): dramatically normalized
- TGF-β1 levels (TGF-β1 [3]): significant rise
- neuroprotective effect in the presence of TGF-β neutralizing antibodies (ischemic cell cultures; FIG. 3): blocked
- neuroprotective effect in the presence of FGF antibody (ischemic cell cultures; FIG. 4): did not block
- neuroprotective effect in vivo in the presence of TGF-β neutralizing antibodies [4]: significantly attenuated
